Experimental findings from US11897918B2, “Compositions and methods to increase production” (priority 2014, dated 2024) are described below.

In experiment [1] the test system is influenza H3N2 strain IVR-165 (A/Victoria/361/2011). Format: cell-based.
In a further experiment the test system is H3N2 strain. As to the kind of experiment: Additional SAR studies, 10 ml viral cultures. The format is cell-based, influenza H3N2. As to conditions: 0.05 uM. Here is the method:
Additional SAR studies were carried out to further identify candidate compounds to increase yields. 165 analogs tested at 0.05 uM in 10 ml viral cultures with a H3N2 strain. BYF589 enhanced yield over no-compound (DMSO) control by ˜2 fold. 14 of the 165 screened were as good as or better in enhancing HA yields than BYF589 at the concentration tested.

Experiment [2] has as its system A/Victoria/361/2011 (IVR-165) (high-expressing). As to the kind of experiment: ambr15 mini-bioreactor and shake flask comparison, A strain. Particulars: CDM and DM134 media, shake flasks and 15 ml bioreactors. The format is cell-based, influenza A H3N2.
For the next experiment, the system named is B/Massachusetts/02/2012. As to the kind of experiment: Ambr 250 mL bioreactor, B strain. Format: cell-based, influenza B. The method, then: FIG. 13 provides a graph showing HA yields in the B strain tested with BYF589 at concentrations as indicated.
FIG. 14 provides a graph showing HA yields in the B strain tested with AFZ077 at concentrations as indicated.
The results were confirmed using 3 different viruses (a high-, medium-, and poor-expressing strains). […] To confirm these findings in a larger-scale system, TD Ambr™ 250 mL bioreactors were employed. Both of the lead compounds (as well as DMSO alone as negative control, and, no compound/no DMSO as double-negative control) were tested with a high- and low-expressing strains to determine if the observed enhancement in the small-scale cultures can be reproduced in a larger-scale system. The following parameters were used: Spent DM134:Fresh PFM (1:3); Virus Strains were A/Victoria/361/2011 (IVR-165) and B/Massachusetts/02/2012; MOI was 10^−5 for A/Victoria IVR-165 and 10^−4 for B/Massachusetts; ICD: 2.0e6-3.0e6 cells/mL; N-1 Process: 1B (no Medium Exchange); and, Harvest Time was 65-72 hours post-infection. HA yields were measured by two methods: RP-HPLC and HA-ELISA. […] Note that the error bars represent one standard deviation from the mean, to illustrate variability of the HA-ELISA assay between assay repeats.

For another experiment, the system named is HEK293 Freestyle cells. The experiment is described as follows: Recombinant protein expression in HEK293 Freestyle cells. Format: cell-based. As to conditions: 70 nM; proteins with a yield of about ≤4 mg/L. The method, then:
To further evaluate general utility of the compounds identified in the HA yield studies, one of the lead compounds, BYF589, was tested on recombinant protein expression using heterologous cells. In particular, proteins that had been previously found to be difficult to express in HEK293 cells were included, which are referred to as “low yielders.” In a typical optimized system, low yielders are defined as having a yield of 5 mg/L or less. About 20 constructs of target proteins with typical yields of between 2-10 mg/L were selected for the experiments. They are secreted mammalian proteins, which are truncated versions of full length counterparts. Each construct (in a variant of the pRS5a vector) contained at least one tag (e.g., at least a C-terminal FlagHis tag—in addition, many are fused N- or C-terminally to mouse IgG1 Fc). Roughly equal numbers of each tag type were selected to reduce bias.
All targets with yields <1 mg/L or >10 mg/L were removed. Next, targets were sorted by tag type. Finally, if it looked like a particular molecular weight range was heavily represented, a few “duplicates” were culled. Then, to select samples, first 6-7 from each tag type were included without additional selection criteria. Resulting target list is reproduced below.
The BYF589 compound was dissolved in DMSO to finally provide a 70 μM working stock (1000×). […]

Each structure is given as a SMILES string.

In the case of `O=C(O)C[C@H](O)C[C@H](O)/C=C/c1c(C2CC2)nc2ccccc2c1-c1ccc(F)cc1` [Compound G, (3R, 5S, 6E)-7-[2-cyclopropyl-4-(4-fluorophenyl)-quinolin-3-yl)-3,5-dihydroxyhept-6-enoic acid], in experiment [1], the “HA yield before the decrease (earlier addition)” value is on record as “about 20 μg/ml” and the “HA yield, compound added 2 hours post infection” value is reported as “about 5 μg/ml”. For the same molecule, the “yield enhancement over no-compound (DMSO) control” value in the experiment on H3N2 strain was roughly 2 fold. Also, in experiment [2], the “HA yield enhancement, high-expressing A strain” value is recorded as “but not a high-expressing H3N2 strain”. Moreover, in the experiment with B/Massachusetts/02/2012 (5 nM vs 50 nM vs 500 nM), the “effectiveness in increasing protein production yield by concentration” value is “more effective in increasing protein production yield at 5 nM than at 50 nM, which in turn was more effective than at 500 nM”. Besides, the “increase in yield over no DMSO control” value in the experiment with B/Massachusetts/02/2012 (0.005 μM, HA-HPLC) is on record as “about 37%”. The “increase in recombinant protein yield” value in the experiment on HEK293 Freestyle cells was no less than 1.5 fold.
